The record followed here is patent EP1218402B1 (Dabur Research Foundation, priority 1999, dated 2001).

SMILES strings stand for the structures. Where only a bound is given, the exact number is not on record here.

The subject of test [1] is HT-29. The experiment in a line: Cytotoxicity assay for tumor cells, colon HT-29. Type of test: cell-based. Particulars: concentration causing 50% cytotoxicity. An excerpt: (§1) The cytotoxicity assays for tumor cells have been described in detail in our application No. 09/040,856 filed in US on March 18, 1998. […] Table - I
Test [2] concerns L132. The experiment in a line: Cytotoxicity assay for tumor cells, lung L132. Type of test: cell-based. Particulars: concentration causing 50% cytotoxicity.
From the text: as §1

In test [3] the test system is DU145. The experiment in a line: Cytotoxicity assay for tumor cells, prostate DU145. Type of test: cell-based. Particulars: concentration causing 50% cytotoxicity.
From the text: as §1

In test [4] the test system is PA-1. The experiment in a line: Cytotoxicity assay for tumor cells, ovary PA-1. Type of test: cell-based. To be noted: concentration causing 50% cytotoxicity.
From the text: as §1

The subject of test [5] is ECV304. Briefly: Tube-like-structure (TLS) formation of ECV304 cells on Matrigel. It is filed as cell-based, human. To be noted: 24 - 48 hours, mean of five fields. As to the method: Matrigel (70 µl) was placed into each well of a 96-well culture plate at 4°C and was allowed to polymerize by incubation at 37°C for 30 min. ECV304 (1 x 10^4) cells were seeded on the Matrigel in 200 µl DMEM containing 10% FBS. […] Five different phase-contrast microscopic fields (4X) were viewed and total tube area of the tube-like-structures (TLS) measured using Video Pro 32 Image Analysis system. Percent reduction in total tube area was given as the mean of the data from five fields. Percent inhibition of TLS was calculated with reference to Controls(no drug). Table - III

The subject of test [6] is ECV304. Briefly: MTT assay, inhibition of proliferation of ECV304 endothelial cells (72 hours). It is filed as cell-based, human. To be noted: concentration causing 50% cytotoxicity. As for the experimental part:
30µl of ECV304 cell suspension (50 x 10^4 cells/ml in RPMI 1640 containing 10% FBS) followed by 150µl of medium was added to the wells of a 96-well tissue culture plate (Nunc, Denmark) and incubated (37°C, 5% CO2) overnight. […] Each concentration was plated in triplicates. 20µl of medium alone was added to control wells. After 72 hours of incubation an MTT assay (Mosmann, 1983) was performed and percentage inhibition in proliferation of treated cells was calculated with respect to control cells.

For `CC(C)C1CCC2(C(=O)O)CCC3(C)C(CCC4C5(C)CCC(N=Cc6ccc(F)cc6F)C(C)(C)C5CCC43C)C12` (stereo not shown) [MJ1065-RS], the “Colon HT-29 (ED50)” value in test [1] amounted to 4.9 µg/mL. Moreover, in test [2], the “Lung L132 (ED50)” value is 3.4 µg/mL. Also, the “Prostate DU145 (ED50)” value in test [3] came out at 2.5 µg/mL. Moreover, in test [4], the “Ovary PA-1 (ED50)” value turned out to be 1.3 µg/mL. Besides, in test [5], the “% reduction in total tube area at concentration 0.5 µg/ml” value stood at 23.4%, the “% reduction in total tube area at concentration 2 µg/ml” value (“% reduction … at concentration 2 µg/ml” below) was 16.7% and the “% reduction in total tube area at concentration 4 µg/ml” value (from here on “% reduction … at concentration 4 µg/ml”) was 46.7%. Moreover, the “Endothelial ECV304 (ED50)” value in test [6] stood at 2.4 µg/mL.
On to `COc1ccc(NNC2CCC3(C)C(CCC4(C)C3CCC3C5C(C(C)C)CCC5(C(=O)O)CCC34C)C2(C)C)cc1` (stereo not shown) [MJ912-RS], for which, in test [1], the “Colon HT-29 (ED50)” value was determined as 0.35 µg/mL. Moreover, in test [2], the “Lung L132 (ED50)” value is > 4 µg/mL. Moreover, in test [3], the “Prostate DU145 (ED50)” value came out at 8.5 µg/mL. Moreover, in test [6], the “Endothelial ECV304 (ED50)” value was determined as 0.4 µg/mL.
`CC(C)C1CCC2(C(=O)O)CCC3(C)C(CCC4C5(C)CCC(=NOCc6ccc([N+](=O)[O-])cc6)C(C)(C)C5CCC43C)C12` (stereo not shown) [MJ1098-RS]: the “Colon HT-29 (ED50)” value in test [1] is 2.6 µg/mL. Moreover, the “Lung L132 (ED50)” value in test [2] is 1.3 µg/mL. Besides, the “Prostate DU145 (ED50)” value in test [3] stood at 1.5 µg/mL. Also, in test [4], the “Ovary PA-1 (ED50)” value turned out to be 1.6 µg/mL. In addition, in test [5], the “% reduction in total tube area at concentration 0.5 µg/ml” value stood at 15%, the “% reduction … at concentration 2 µg/ml” value is 7.5% and the “% reduction … at concentration 4 µg/ml” value worked out at 10%. Also, the “Endothelial ECV304 (ED50)” value in test [6] worked out at 0.6 µg/mL.
Regarding `C=C(C)C1CCC2(C(=O)O)CCC3(C)C(CCC4C5(C)CCC(OC(=O)c6ccc(CCCCC)cc6)C(C)(C)C5CCC43C)C12` (stereo not shown) [MJ1104-RS], the “Colon HT-29 (ED50)” value in test [1] came out at 3.5 µg/mL. In addition, in test [2], the “Lung L132 (ED50)” value was determined as 5.9 µg/mL. In addition, the “Prostate DU145 (ED50)” value in test [3] came out at 2 µg/mL. Moreover, the “Ovary PA-1 (ED50)” value in test [4] was > 4 µg/mL. The “Endothelial ECV304 (ED50)” value in test [6] was 1.9 µg/mL.
For `C=C(C)C1CCC2(C(=O)O)CCC3(C)C(CCC4C5(C)CCC(OC(=O)c6cccc(C(F)(F)F)c6)C(C)(C)C5CCC43C)C12` (stereo not shown) [MJ939-RS], in that order: > 10 µg/mL, 2.7 µg/mL, > 10 µg/mL, > 4 µg/mL and 0.9 µg/mL.
For `CC(C)C1CCC2(C(=O)O)CCC3(C)C(CCC4C5(C)CCC(N=Cc6ccc(F)c(F)c6)C(C)(C)C5CCC43C)C12` (stereo not shown) [MJ998-RS], the “Colon HT-29 (ED50)” value in test [1] was 4 µg/mL. Besides, in test [2], the “Lung L132 (ED50)” value was 2.5 µg/mL. In test [3], the “Prostate DU145 (ED50)” value was found to be 2.2 µg/mL. For the same compound, in test [4], the “Ovary PA-1 (ED50)” value amounted to 1.3 µg/mL. Also, in test [5], the “% reduction in total tube area at concentration 0.5 µg/ml” value was found to be 21.1%, the “% reduction … at concentration 2 µg/ml” value was determined as 13.4% and the “% reduction … at concentration 4 µg/ml” value stood at 33.4%. Moreover, the “Endothelial ECV304 (ED50)” value in test [6] turned out to be 0.35 µg/mL.
For `CC(C)C1CCC2(C(=O)O)CCC3(C)C(CCC4C5(C)CCC(OC(=O)c6ccc(F)cc6F)C(C)(C)C5CCC43C)C12` (stereo not shown) [MJ937-RS], the “Colon HT-29 (ED50)” value in test [1] worked out at 1.7 µg/mL. Besides, the “Lung L132 (ED50)” value in test [2] stood at 1.1 µg/mL. For the same compound, the “Prostate DU145 (ED50)” value in test [3] stood at 2.5 µg/mL. For the same compound, the “Ovary PA-1 (ED50)” value in test [4] was 1.6 µg/mL. Moreover, in test [5], the “% reduction in total tube area at concentration 0.5 µg/ml” value is listed as 16.7%, the “% reduction … at concentration 2 µg/ml” value turned out to be 21% and the “% reduction … at concentration 4 µg/ml” value turned out to be 21.7%. For the same compound, in test [6], the “Endothelial ECV304 (ED50)” value stood at 0.7 µg/mL.
On to `C=C(C)C1CCC2(C(=O)O)CCC3(C)C(CCC4C5(C)CCC(OC(=O)Cc6cc(OC)ccc6OC)C(C)(C)C5CCC43C)C12` (stereo not shown) [MJ1108-RS], for which the “Colon HT-29 (ED50)” value in test [1] is > 10 µg/mL. For the same compound, the “Lung L132 (ED50)” value in test [2] is 4.6 µg/mL. The “Prostate DU145 (ED50)” value in test [3] is 1 µg/mL. In addition, in test [6], the “Endothelial ECV304 (ED50)” value was determined as 1.8 µg/mL.
Consider `CC(C)C1CCC2(C(=O)O)CCC3(C)C(CCC4C5(C)CCC(OC(=O)c6ccccc6C(F)(F)F)C(C)(C)C5CCC43C)C12` (stereo not shown) [MJ943-RS], for which the “Colon HT-29 (ED50)” value in test [1] is > 10 µg/mL. In addition, the “Lung L132 (ED50)” value in test [2] is 4 µg/mL. Further, in test [3], the “Prostate DU145 (ED50)” value is > 4 µg/mL. The “Ovary PA-1 (ED50)” value in test [4] was > 4 µg/mL. Moreover, the “Endothelial ECV304 (ED50)” value in test [6] worked out at 2.6 µg/mL.
`CC(C)C1CCC2(C(=O)O)CCC3(C)C(CCC4C5(C)CCC(OC(=O)c6cc(F)cc(F)c6)C(C)(C)C5CCC43C)C12` (stereo not shown) [MJ935-RS]: the “Colon HT-29 (ED50)” value in test [1] was > 10 µg/mL. The “Lung L132 (ED50)” value in test [2] is 1.2 µg/mL. Moreover, the “Prostate DU145 (ED50)” value in test [3] turned out to be 3.2 µg/mL. Also, the “Endothelial ECV304 (ED50)” value in test [6] was 0.7 µg/mL.
On to `C=C(C)C1CCC2(C(=O)O)CCC3(C)C(CCC4C5(C)CCC(=NNc6ccccc6)C(C)(C)C5CCC43C)C12` (stereo not shown) [MJ353-RS], for which the “Colon HT-29 (ED50)” value in test [1] is > 10 µg/mL. Besides, the “Lung L132 (ED50)” value in test [2] worked out at 4.5 µg/mL. In test [3], the “Prostate DU145 (ED50)” value was determined as 6.5 µg/mL. In addition, the “Ovary PA-1 (ED50)” value in test [4] worked out at 5 µg/mL. The “Endothelial ECV304 (ED50)” value in test [6] came out at 2.4 µg/mL.
